Measured values from the NIST ThermoML archive (doi:10.1021/je5010214).

Details: Liquid, Vibrating tube method

CCCCO [butan-1-ol]
Details	mass density [kg/m3]
283.15 K, 267.6 kPa	817.937
283.15 K, 550.8 kPa	818.14
283.15 K, 878.6 kPa	818.388
283.15 K, 991.3 kPa	818.415
283.15 K, 2020.2 kPa	819.134
283.15 K, 2914.8 kPa	819.722
283.15 K, 4946.5 kPa	821.145
283.15 K, 7034.8 kPa	822.538
283.15 K, 9021.6 kPa	823.807
283.15 K, 9991.9 kPa	824.485
283.15 K, 11959 kPa	825.705
283.15 K, 15011 kPa	827.609
283.15 K, 18047 kPa	829.455
283.15 K, 20045 kPa	830.642
283.15 K, 22057 kPa	831.928
283.15 K, 25044 kPa	833.615
283.15 K, 28046 kPa	835.368
283.15 K, 30052 kPa	836.501
283.15 K, 32970 kPa	838.092
283.15 K, 32971 kPa	838.117
283.15 K, 34017 kPa	838.557
283.15 K, 34960 kPa	839.141
283.15 K, 37943 kPa	840.737
283.15 K, 40004 kPa	841.811
283.15 K, 42058 kPa	842.896
283.15 K, 44940 kPa	844.325
283.15 K, 48022 kPa	845.954
283.15 K, 49996 kPa	846.902
283.15 K, 51982 kPa	847.942
283.15 K, 54965 kPa	849.358
283.15 K, 57949 kPa	850.826
283.15 K, 59996 kPa	851.847
283.15 K, 62025 kPa	852.74
283.15 K, 64998 kPa	854.215
283.16 K, 101.2 kPa	817.825
283.16 K, 65971 kPa	854.69
288.15 K, 78.5 kPa	813.612
288.15 K, 391.3 kPa	813.84
288.15 K, 554.4 kPa	813.953
288.15 K, 882.7 kPa	814.204
288.15 K, 989.1 kPa	814.282
288.15 K, 2057.5 kPa	815.033
288.15 K, 2917.8 kPa	815.651
288.15 K, 5041.4 kPa	817.16
288.15 K, 7088.8 kPa	818.541
288.15 K, 9018.6 kPa	819.847
288.15 K, 10040 kPa	820.583
288.15 K, 12072 kPa	821.91
288.15 K, 15001 kPa	823.877
288.15 K, 17968 kPa	825.72
288.15 K, 20068 kPa	826.976
288.15 K, 20693 kPa	827.38
288.15 K, 22020 kPa	828.211
288.15 K, 25002 kPa	829.984
288.15 K, 28026 kPa	831.832
288.15 K, 30035 kPa	832.896
288.15 K, 32084 kPa	834.074
288.15 K, 33050 kPa	834.714
288.15 K, 34036 kPa	835.152
288.15 K, 35077 kPa	835.674
288.15 K, 37993 kPa	837.311
288.15 K, 40041 kPa	838.449
288.15 K, 42023 kPa	839.459
288.15 K, 44979 kPa	841.064
288.15 K, 48045 kPa	842.655
288.15 K, 50068 kPa	843.734
288.15 K, 52032 kPa	844.696
288.15 K, 55077 kPa	846.251
288.15 K, 58004 kPa	847.666
288.15 K, 59988 kPa	848.618
288.15 K, 61974 kPa	849.542
288.15 K, 64942 kPa	850.93
288.15 K, 66025 kPa	851.488
293.15 K, 91.1 kPa	810.528
293.15 K, 825.1 kPa	811.053
293.15 K, 1971.7 kPa	811.916
293.15 K, 3060.6 kPa	812.72
293.15 K, 5011 kPa	814.074
293.15 K, 9042.1 kPa	816.992
293.15 K, 10036 kPa	817.626
293.15 K, 11947 kPa	818.963
293.15 K, 14941 kPa	820.924
293.15 K, 21987 kPa	825.417
293.15 K, 27986 kPa	829.06
293.15 K, 28066 kPa	829.163
293.15 K, 33151 kPa	832.036
293.15 K, 34099 kPa	832.526
293.15 K, 35000 kPa	833.078
293.15 K, 40081 kPa	835.959
293.15 K, 42099 kPa	837.008
293.15 K, 45068 kPa	838.658
293.15 K, 54966 kPa	843.81
293.15 K, 58072 kPa	845.282
293.15 K, 66045 kPa	849.224
293.16 K, 305.2 kPa	810.686
293.16 K, 476.4 kPa	810.81
293.16 K, 1045.2 kPa	811.221
293.16 K, 7096.8 kPa	815.616
293.16 K, 17889 kPa	822.832
293.16 K, 19992 kPa	824.147
293.16 K, 24983 kPa	827.251
293.16 K, 29976 kPa	830.11
293.16 K, 32232 kPa	831.521
293.16 K, 38027 kPa	834.783
293.16 K, 48022 kPa	840.192
293.16 K, 50085 kPa	841.31
293.16 K, 52032 kPa	842.308
293.16 K, 60018 kPa	846.257
293.16 K, 61962 kPa	847.209
293.16 K, 64991 kPa	848.649
298.15 K, 98.1 kPa	806.282
298.15 K, 305.4 kPa	806.45
298.15 K, 854.5 kPa	806.874
298.15 K, 1980.9 kPa	807.747
298.15 K, 3167.8 kPa	808.637
298.15 K, 5067.6 kPa	810.04
298.15 K, 7065.3 kPa	811.55
298.15 K, 10107 kPa	813.67
298.15 K, 20128 kPa	820.445
298.15 K, 22004 kPa	821.641
298.15 K, 25081 kPa	823.55
298.15 K, 33113 kPa	828.365
298.15 K, 33924 kPa	828.845
298.15 K, 38097 kPa	831.213
298.15 K, 40161 kPa	832.357
298.15 K, 42029 kPa	833.462
298.15 K, 42359 kPa	833.614
298.15 K, 45021 kPa	835.052
298.15 K, 48107 kPa	836.745
298.15 K, 50068 kPa	837.797
298.15 K, 55016 kPa	840.375
298.15 K, 57931 kPa	841.819
298.15 K, 59914 kPa	842.826
298.15 K, 62036 kPa	843.934
298.15 K, 65018 kPa	845.412
298.16 K, 493.7 kPa	806.599
298.16 K, 1012.6 kPa	806.992
298.16 K, 9120.9 kPa	813.012
298.16 K, 11970 kPa	814.957
298.16 K, 15220 kPa	817.234
298.16 K, 17984 kPa	819.076
298.16 K, 28040 kPa	825.42
298.16 K, 30089 kPa	826.686
298.16 K, 32030 kPa	827.814
298.16 K, 35217 kPa	829.575
298.16 K, 52020 kPa	838.835
298.16 K, 66118 kPa	845.919
303.15 K, 304.1 kPa	802.278
303.15 K, 498.9 kPa	802.435
303.15 K, 900.6 kPa	802.733
303.15 K, 979.1 kPa	802.787
303.15 K, 1977.6 kPa	803.554
303.15 K, 4930.4 kPa	805.792
303.15 K, 11975 kPa	810.901
303.15 K, 15044 kPa	812.956
303.15 K, 19974 kPa	816.207
